The record followed here is patent US6682892B2, “Method for treating herpes viruses” (priority 2000, dated 2004).

A value given as a limit tells only on which side of the number the result lay.

The subject of one assay is HSV-1 DJL. Description: Plaque reduction assay, HSV-1 DJL. Format: cell-based. As to conditions: Table 1, plaque reduction, Vero cells. The procedure: (§1) Antiviral activity of compounds against herpesviruses such as HSV-1, HSV-2, or HCMV can be measured using plaque reduction assays. 0.1 ml of media containing approximately 50 PFU of virus is added to each well of a 24-well cell culture dish containing a confluent monolayer of cells (Vero cells for HSV-1 and HSV-2, HFF cells for HCMV). Compounds are dissolved in 100% DMSO and diluted in 100% DMSO as 200× stocks of the desired final drug concentration. Typically 5-6 two-fold dilutions are prepared for each compound. Dilutions of compounds are then added to media containing 0.8% CMC resulting in a final 1× drug concentration. After the virus-infected cells have incubated for 1 h at 37° C., the virus innoculum is removed and 1 ml of media containing 0.8% CMC and the various concentrations of compound is added to each well of the dish. The dish is incubated at 37° C. for approximately 2-3 days (HSV-1 and HSV-2) or 6-9 days (HCMV) to allow sufficient growth of virus to form plaques in the cell monolayer. Plaques can be observed and counted microscopically or by staining the cells with 0.1% crystal violet in 20% ethanol. […] Antiviral activity of a compound is expressed as the concentration of compound predicted to reduce the number of plaques in a well by 50% (IC50). The IC50 values are calculated by plotting the per cent inhibition vs. concentration of compound using EXCEL software for linear regression.
(§2) A panel of viruses consisting of four strains of HSV-1 (KOS, F, DJL, Patton) and three strains of HSV-2 (MS, 35D, 186) are tested in a plaque reduction assay against four different 4-oxo-DHQ compounds (#1, 2, 4, 5 as shown in FIG. 1), and one 4-oxo-DHTP compound (#3 as shown in FIG. 1) and against Acyclovir. The six drugs inhibited replication of the seven virus strains with IC50 values ranging from 2-10 μM (Table 1). In order to select for 4-oxo-DHQ resistant mutants, HSV-1 strains KOS, F, and DJL along with HSV-2 strains 186 and MS are serially passaged in the presence of 20 uM compound 1. Following the seventh passage, 4-oxo-DHQ resistant virus from each strain are plaque purified three times and high-titer stocks are made.

For another assay, the system named is HSV-2 MS. Description: Plaque reduction assay, HSV-2 MS. Format: cell-based. As to conditions: Table 1, plaque reduction, Vero cells; read-out: IC50 (uM), HSV-2 MS. The method, then:
as §1, §2

Another assay deals with HSV-2 186. The assay is described as follows: Plaque reduction assay, HSV-2 186. Format: cell-based. As to conditions: Table 1, plaque reduction, Vero cells. The procedure:
as §1, §2

For a further assay, the system named is HSV-1 KOS-M1 (V823A). The assay is described as follows: Plaque reduction assay, 4-oxo-DHQ resistant HSV-1 KOS-M1. The assay is classed as cell-based. The note with it: Table 2, mutant V823A; read-out: IC50 (uM), HSV-1 Kos-M1. The method, then:
as §1
(§3) Vero cells are plated out at a density of 3.5×10^5 cells per well in a six well tissue culture plate. Cells are infected with HSV-1 KOS at a multiplicity of infection (moi) of 0.1 pfu/cell and 1 h post infection the cells are overlayed with 3 ml media containing 20 uM of a 4-oxo-DHQ. Cultures are incubated for 20 h at 37° C., freeze/thawed to release cell-associated virus, and 0.1 ml of culture is used to infect a new monolayer of Vero cells (one passage). Serial passage is repeated seven times in the presence of 20 uM drug. Virus isolates are then plaque purified three times prior to preparation of stocks. 4-oxo-DHQ resistant HSV-1 and HSV-2 may also be selected by the marker transfer method described below using wild-type HSV DNA and the corresponding mutant HSV polymerase gene.
as §2

The subject of a further assay is HSV-1 DJL-M1 (V823A). Description: Plaque reduction assay, 4-oxo-DHQ resistant HSV-1 DJL-M1. Format: cell-based. The note with it: Table 2, mutant V823A. The method, then: (§4) Antiviral activity of compounds against herpesviruses such as HSV-1, HSV-2, or HCMV can be measured using plaque reduction assays. 0.1 ml of media containing approximately 50 PFU of virus is added to each well of a 24-well cell culture dish containing a confluent monolayer of cells (Vero cells for HSV-1 and HSV-2, HFF cells for HCMV). Compounds are dissolved in 100% DMSO and diluted in 100% DMSO as 200× stocks of the desired final drug concentration. Typically 5-6 two-fold dilutions are prepared for each compound. Dilutions of compounds are then added to media containing 0.8% CMC resulting in a final 1× drug concentration. After the virus-infected cells have incubated for 1 h at 37° C., the virus innoculum is removed and 1 ml of media containing 0.8% CMC and the various concentrations of compound is added to each well of the dish. The dish is incubated at 37° C. for approximately 2-3 days (HSV-1 and HSV-2) or 6-9 days (HCMV) to allow sufficient growth of virus to form plaques in the cell monolayer. Plaques can be observed and counted microscopically or by staining the cells with 0.1% crystal violet in 20% ethanol. […] The IC50 values are calculated by plotting the per cent inhibition vs. concentration of compound using EXCEL software for linear regression. […]

Another assay has as its system HSV-2 MS-M1 (V826A). The assay is described as follows: Plaque reduction assay, 4-oxo-DHQ resistant HSV-2 MS-M1. Format: cell-based. As to conditions: Table 2, mutant V826A; read-out: IC50 (uM), HSV-2 MS-M1. The method, then: as §1, §3, §2
The subject of another assay is HSV-2 186-M1 (V828A). The assay is described as follows: Plaque reduction assay, 4-oxo-DHQ resistant HSV-2 186-M1. Format: cell-based. As to conditions: Table 2, mutant V828A. The procedure: as §4
Another assay addresses HCMV (wild) polymerase (Human cytomegalovirus, UniProt P08546). The assay is described as follows: In vitro polymerase assay, wild HCMV polymerase. The assay is classed as biochemical. As to conditions: Table 3. The procedure:
In order to select for a 4-oxo-DHQ HCMV resistant mutant, virus (strain AD169) is serially passaged in the presence of 20 uM a 4-oxo-DHQ. […] In order to determine if both valines need to be changed in order to confer resistance to the 4-oxo-DHQ's, in vitro polymerase assays are done using mutant HCMV polymerases containing either V823A or V823A plus V824L (Table 3).

The test system of assay [1] is 4-oxo-DHQ resistant HSV-1, HSV-2 and HCMV mutants. Description: Plaque reduction assay, 4-oxo-DHQ resistant mutants compared with parent virus. The note with it: HSV-1 and HSV-2 mutants. The assay is classed as cell-based. The procedure: as §4

Chain of HCMV (wild) polymerase (P08546 whole entry): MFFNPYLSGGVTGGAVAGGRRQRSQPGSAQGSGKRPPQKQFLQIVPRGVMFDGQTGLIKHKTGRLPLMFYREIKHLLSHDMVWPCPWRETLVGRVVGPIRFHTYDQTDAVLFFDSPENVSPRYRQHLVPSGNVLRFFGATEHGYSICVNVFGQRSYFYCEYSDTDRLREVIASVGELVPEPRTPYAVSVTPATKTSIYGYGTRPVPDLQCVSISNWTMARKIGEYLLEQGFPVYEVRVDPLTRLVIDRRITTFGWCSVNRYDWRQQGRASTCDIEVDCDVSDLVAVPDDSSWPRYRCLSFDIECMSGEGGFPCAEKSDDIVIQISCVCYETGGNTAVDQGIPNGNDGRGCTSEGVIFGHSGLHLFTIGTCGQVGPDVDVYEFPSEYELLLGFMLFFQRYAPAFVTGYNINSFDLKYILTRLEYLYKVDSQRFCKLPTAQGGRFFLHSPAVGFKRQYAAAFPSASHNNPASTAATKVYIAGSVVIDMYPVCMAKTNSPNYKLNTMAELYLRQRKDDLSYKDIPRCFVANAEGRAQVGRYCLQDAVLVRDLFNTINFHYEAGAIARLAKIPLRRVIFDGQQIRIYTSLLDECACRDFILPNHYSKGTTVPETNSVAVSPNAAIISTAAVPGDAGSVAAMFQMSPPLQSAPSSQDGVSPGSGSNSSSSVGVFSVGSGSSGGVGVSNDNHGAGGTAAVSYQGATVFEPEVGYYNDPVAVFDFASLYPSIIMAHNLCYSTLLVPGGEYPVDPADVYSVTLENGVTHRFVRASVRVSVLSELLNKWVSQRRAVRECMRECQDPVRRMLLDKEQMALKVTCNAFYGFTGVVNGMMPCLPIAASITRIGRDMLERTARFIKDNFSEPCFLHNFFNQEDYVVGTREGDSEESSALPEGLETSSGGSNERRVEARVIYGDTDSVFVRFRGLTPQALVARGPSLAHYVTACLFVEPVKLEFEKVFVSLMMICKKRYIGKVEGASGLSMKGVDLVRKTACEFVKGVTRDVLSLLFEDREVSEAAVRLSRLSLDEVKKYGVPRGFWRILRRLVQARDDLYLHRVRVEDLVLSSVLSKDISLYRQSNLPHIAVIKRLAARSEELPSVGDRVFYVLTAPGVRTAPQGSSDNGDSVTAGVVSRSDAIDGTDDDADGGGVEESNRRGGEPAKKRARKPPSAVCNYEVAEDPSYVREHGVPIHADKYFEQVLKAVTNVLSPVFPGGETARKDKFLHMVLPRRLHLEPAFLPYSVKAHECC

Take `Cn1cc(C(=O)NCc2ccc(Cl)cc2)c(=O)c2cc(/C=C\CO)cc(F)c21` [Compound 1]: the IC50 with HSV-1 DJL is 2.5 µM; in the assay with HSV-2 MS, 2 µM; with HSV-2 186, 2 µM; with HSV-1 KOS-M1 (V823A), over 20 µM; in the assay on HSV-1 DJL-M1 (V823A), over 20 µM; in the assay with HSV-2 MS-M1 (V826A) it was over 20 µM. The IC50 is over 20 µM in the assay with HSV-2 186-M1 (V828A) and 4.6 µM on HCMV (wild) polymerase. For the same compound, the “increase in IC50, HSV mutants selected with compound 1” value in [1] is over 10 fold.
